The values that follow come from paper PMC8578705 (Cell Reports, 2021).

Several values for one entry are separate records, joined by “and”; a condition that tells them apart may be missing. Equal values may be shown once.

One test has as its target T1, IP3R1 (HEK-IP3R1 cells) (Rattus norvegicus, UniProt P29994).
T1 construct: expressed in transfected cells
In words: Ca2+ release from permeabilized HEK-IP3R1 cells. The class given is cell-based. The note with it: at the concentrations used (heparin 10 mg/mL, dequalinium 50 μM, 2-APB 125 μM), permeabilized HEK-IP3R1 cells. As for the experimental part:
Fluorescence, which is approximately linearly related to ER free [Ca^2+] […] Ca^2+-free CLM comprised: 20 mM NaCl, 140 mM KCl, 1 mM EGTA, 20 mM PIPES, 2 mM MgCl2, pH 7.0. […] MgATP (1.5 mM) was added to initiate Ca^2+ uptake, and when the ER had loaded to steady state with Ca^2+ (∼150 s), ligands were added. Responses to the ligands show ER Ca^2+ contents as either time courses or, in summary results, as the Ca^2+ content recorded 20 s after addition of the stimulus. The distribution of samples across 96-well plates was varied between experiments to avoid any systematic ‘position-related’ artifacts. HEK-G-CEPIA1er cells were permeabilized and assayed as described for Mag-fluo 4-loaded cells.
For equilibrium binding and concentration-effect relationships, results from each experiment were fitted to Hill equations (PRISM) from which pIC50 (-log of half-maximal inhibitory concentration) or pEC50 (-log of half-maximally effective concentration) values were determined.

Test [1] has as its target T2, NT (residues 1-604 of IP3R1) (Rattus norvegicus, UniProt P29994).
T2 construct: Residues 1-604 of rat IP3R1 (NT) in pTrcHisA plasmid; His6 (N, cleaved yes); made in house; host or cells: E. coli (bacterial lysate used in the assay)
In words: Equilibrium-competition [3H]IP3 binding to the NT fragment in TEM. Conditions: [3H]IP3 0.75 nM, read-out: NT, KD. As for the experimental part: (§1) IP3R1, which accounts for ∼99% of IP3Rs in cerebellum ([Wojcikiewicz, 1995]), was purified from cerebella of adult Wistar rats using heparin-affinity chromatography ([Rossi et al., 2009]). The purified protein (10 μg/mL) was stored at −80°C in 500 mM NaCl, 50 mM Tris, 10% glycerol, 1 mM 2-mercaptoethanol, 1 mM benzamidine, 1 mM EGTA, 50 mM Tris, 1% CHAPS, pH 8.0. N-terminal fragments of IP3R1 (IBC, residues 224-604; NT, residues 1-604) were expressed as N-terminally tagged His6-fusion proteins in E. coli and cleaved from the tag with thrombin ([Rossi et al., 2009]). […] Bound and free ligand were separated by centrifugation (4°C, 5 min, 14,000 × g).
(§2) For equilibrium binding and concentration-effect relationships, results from each experiment were fitted to Hill equations (PRISM) from which pIC50 (-log of half-maximal inhibitory concentration) or pEC50 (-log of half-maximally effective concentration) values were determined. KDligand was calculated from: KDligand = […] . In functional assays, dose ratios (DR) were used to calculate antagonist affinities ([Arunlakshana and Schild, 1959]): KDantagonist = [antagonist]/(DR-1).

Test [2] addresses T3, IBC (residues 224-604 of IP3R1) (Rattus norvegicus, UniProt P29994).
T3 construct: Residues 224-604 of rat IP3R1 (IBC) in pTrcHisA plasmid; His6 (N, cleaved yes); made in house; host or cells: E. coli (bacterial lysate used in the assay)
The test can be described thus: Equilibrium-competition [3H]IP3 binding to the IBC fragment in TEM. Conditions: read-out: IBC, KD. As for the experimental part:
as §1, §2

Test [3] concerns the target T4, IP3R1 (cerebellar membranes) (Rattus norvegicus, UniProt P29994).
T4 construct: membranes from cerebella of adult Wistar rats; from tissue; host or cells: cerebellar membranes of adult Wistar rats
The test can be described thus: Equilibrium-competition [3H]IP3 binding to cerebellar membranes in CLM (conditions mimicking functional assays). As to the method:
Bound and free ligand were separated by centrifugation (22°C, 5 min, 14,000 × g).
as §2

The next test deals with T5, IP3R1 (DT40-IP3R1 cells) (Rattus norvegicus, UniProt P29994).
T5 construct: expressed in transfected cells; host or cells: Gallus gallus DT40 cells without native IP3Rs, stably transfected
In words: Ca2+ release from permeabilized DT40-IP3R1 cells (Mag-fluo 4). In kind it is cell-based. As for the experimental part: (§3) Incubation of cells with the acetoxymethylester (AM) of Mag-fluo 4 traps low-affinity forms of the indicator ( KdCa = 1.15 mM measured in situ) within the ER. Fluorescence, which is approximately linearly related to ER free [Ca^2+] (since [Ca^2+]ER < KdCa ), can then be used, without further calibration, to reliably report free [Ca^2+] within the ER lumen ([Rossi and Taylor, 2020]). The ER of DT40 or HEK293 cells was loaded with indicator by incubating cells with Mag-fluo 4 AM (20 μM, 60 min, 22°C) in HEPES-buffered saline (HBS: 135 mM NaCl, 5.9 mM KCl, 11.6 mM HEPES, 1.5 mM CaCl2, 11.5 mM glucose, 1.2 mM MgCl2, pH 7.3) as described ([Rossi et al., 2009]). After washing and permeabilization with saponin (10 μg/mL, 37°C, 2-3 min) in Ca^2+-free cytosol-like medium (Ca^2+-free CLM), cells were centrifuged (650 × g, 2 min) and resuspended in Mg^2+-free CLM supplemented with CaCl2 to give a final free [Ca^2+] of 220 nM after addition of 1.5 mM MgATP. Ca^2+-free CLM comprised: 20 mM NaCl, 140 mM KCl, 1 mM EGTA, 20 mM PIPES, 2 mM MgCl2, pH 7.0. Cells (4 × 10^5 cells/well) were attached to poly-L-lysine-coated 96-well black-walled plates (Greiner Bio-One, Stonehouse, UK), and fluorescence (excitation and emission at 485 nm and 520 nm, respectively) was recorded at intervals of 1.44 s using a FlexStation III plate-reader (Molecular Devices, Sunnyvale, CA, USA). MgATP (1.5 mM) was added to initiate Ca^2+ uptake, and when the ER had loaded to steady state with Ca^2+ (∼150 s), ligands were added. Responses to the ligands show ER Ca^2+ contents as either time courses or, in summary results, as the Ca^2+ content recorded 20 s after addition of the stimulus. The distribution of samples across 96-well plates was varied between experiments to avoid any systematic ‘position-related’ artifacts. HEK-G-CEPIA1er cells were permeabilized and assayed as described for Mag-fluo 4-loaded cells.
as §2

In test [4] the test system is IP3Rs (wild-type HEK cells). The test can be described thus: Ca2+ release from permeabilized wild-type HEK cells. In kind it is cell-based, Homo sapiens. Conditions: 20 s after addition. As for the experimental part:
as §3, §2

The target of a further test is T6, IP3R1 (Rattus norvegicus, UniProt P29994).
T6 construct: expressed in transfected cells; host or cells: Gallus gallus DT40 cells without native IP3Rs, stably transfected
The test can be described thus: Nuclear patch-clamp recording from excised nuclear patches of DT40-IP3R1 cells. The class given is biochemical, mammalian. As for the experimental part: The methods used for patch-clamp recording from patches excised from the outer nuclear envelope of DT40-IP3R1 cells, with K^+ as charge-carrier and using QuB ([Qin, 2004]) for analysis of currents, were as described previously ([Taufiq-Ur-Rahman et al., 2009]; [Rossi et al., 2009]). It typically took 30-45 s to establish a recording, and Po was then stable throughout recordings that typically lasted up to 8-10 mins.
For orientation: The patch-clamp technique gives a direct electrical read-out from membranes.

T4 sequence (P29994 whole entry): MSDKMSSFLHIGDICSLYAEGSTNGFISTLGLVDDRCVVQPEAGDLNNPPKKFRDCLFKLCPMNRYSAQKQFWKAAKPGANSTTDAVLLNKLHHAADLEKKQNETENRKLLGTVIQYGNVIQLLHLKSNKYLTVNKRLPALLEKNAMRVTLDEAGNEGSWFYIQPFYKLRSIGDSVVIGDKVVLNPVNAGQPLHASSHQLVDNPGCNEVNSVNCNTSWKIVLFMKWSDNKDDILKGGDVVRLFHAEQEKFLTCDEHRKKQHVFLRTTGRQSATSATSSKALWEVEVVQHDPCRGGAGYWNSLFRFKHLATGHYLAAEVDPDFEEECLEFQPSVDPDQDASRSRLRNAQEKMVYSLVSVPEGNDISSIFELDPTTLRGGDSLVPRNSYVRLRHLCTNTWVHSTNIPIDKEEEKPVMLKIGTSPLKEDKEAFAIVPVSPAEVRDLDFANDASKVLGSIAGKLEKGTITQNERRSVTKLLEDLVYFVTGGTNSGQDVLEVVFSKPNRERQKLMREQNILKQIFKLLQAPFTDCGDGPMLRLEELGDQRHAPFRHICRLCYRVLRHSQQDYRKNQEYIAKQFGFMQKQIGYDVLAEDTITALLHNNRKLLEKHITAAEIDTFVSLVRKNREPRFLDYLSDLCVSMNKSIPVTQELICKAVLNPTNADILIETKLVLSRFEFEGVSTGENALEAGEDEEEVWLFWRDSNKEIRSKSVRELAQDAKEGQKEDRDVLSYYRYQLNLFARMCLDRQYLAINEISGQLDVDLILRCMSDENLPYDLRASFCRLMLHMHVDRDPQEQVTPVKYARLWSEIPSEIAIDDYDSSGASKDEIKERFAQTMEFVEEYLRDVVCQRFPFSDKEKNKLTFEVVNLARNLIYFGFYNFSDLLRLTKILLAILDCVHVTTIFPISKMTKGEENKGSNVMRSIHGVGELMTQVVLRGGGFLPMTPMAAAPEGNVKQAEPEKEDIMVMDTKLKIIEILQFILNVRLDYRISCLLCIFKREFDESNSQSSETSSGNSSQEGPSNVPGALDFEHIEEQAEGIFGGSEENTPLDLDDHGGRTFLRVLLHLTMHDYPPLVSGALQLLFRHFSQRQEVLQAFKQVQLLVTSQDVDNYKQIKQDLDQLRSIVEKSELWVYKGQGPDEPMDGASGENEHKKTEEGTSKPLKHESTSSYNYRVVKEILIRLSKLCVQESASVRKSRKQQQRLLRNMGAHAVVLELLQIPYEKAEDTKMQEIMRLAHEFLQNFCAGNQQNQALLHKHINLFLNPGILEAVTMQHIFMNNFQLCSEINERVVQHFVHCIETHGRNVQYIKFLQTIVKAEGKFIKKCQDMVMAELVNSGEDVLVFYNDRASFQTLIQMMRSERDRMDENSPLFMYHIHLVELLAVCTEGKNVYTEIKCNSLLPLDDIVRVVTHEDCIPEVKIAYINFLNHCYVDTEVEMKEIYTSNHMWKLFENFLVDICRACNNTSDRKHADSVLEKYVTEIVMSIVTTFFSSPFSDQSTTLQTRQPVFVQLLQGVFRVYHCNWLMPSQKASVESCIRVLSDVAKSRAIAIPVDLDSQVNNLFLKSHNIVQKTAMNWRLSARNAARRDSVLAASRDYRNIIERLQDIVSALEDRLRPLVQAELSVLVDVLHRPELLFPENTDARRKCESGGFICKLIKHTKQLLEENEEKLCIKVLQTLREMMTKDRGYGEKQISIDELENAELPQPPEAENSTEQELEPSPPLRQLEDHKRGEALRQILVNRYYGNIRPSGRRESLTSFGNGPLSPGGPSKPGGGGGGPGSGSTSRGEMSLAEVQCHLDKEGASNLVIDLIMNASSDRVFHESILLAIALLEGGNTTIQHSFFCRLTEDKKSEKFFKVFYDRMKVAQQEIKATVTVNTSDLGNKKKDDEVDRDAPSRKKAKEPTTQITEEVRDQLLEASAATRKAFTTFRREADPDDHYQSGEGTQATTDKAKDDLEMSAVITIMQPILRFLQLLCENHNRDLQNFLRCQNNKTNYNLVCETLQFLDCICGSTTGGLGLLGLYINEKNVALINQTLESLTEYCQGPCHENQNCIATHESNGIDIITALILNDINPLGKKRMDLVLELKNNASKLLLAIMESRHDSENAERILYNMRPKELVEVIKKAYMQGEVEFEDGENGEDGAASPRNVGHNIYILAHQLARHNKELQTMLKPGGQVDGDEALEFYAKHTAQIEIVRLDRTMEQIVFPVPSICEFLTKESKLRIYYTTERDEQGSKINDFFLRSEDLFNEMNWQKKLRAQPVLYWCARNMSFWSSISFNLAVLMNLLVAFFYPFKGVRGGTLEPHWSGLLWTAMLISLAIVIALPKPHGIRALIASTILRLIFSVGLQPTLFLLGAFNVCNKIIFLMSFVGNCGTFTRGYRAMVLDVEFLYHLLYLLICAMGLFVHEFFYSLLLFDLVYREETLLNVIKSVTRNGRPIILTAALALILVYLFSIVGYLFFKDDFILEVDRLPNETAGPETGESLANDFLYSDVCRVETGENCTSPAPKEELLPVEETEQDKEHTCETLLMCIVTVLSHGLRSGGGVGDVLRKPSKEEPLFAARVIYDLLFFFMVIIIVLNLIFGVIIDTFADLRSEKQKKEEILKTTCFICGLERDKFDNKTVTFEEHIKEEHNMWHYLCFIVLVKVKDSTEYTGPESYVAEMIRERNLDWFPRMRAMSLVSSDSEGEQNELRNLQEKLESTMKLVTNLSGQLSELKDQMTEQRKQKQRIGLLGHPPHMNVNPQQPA
T2 sequence (P29994 1-604): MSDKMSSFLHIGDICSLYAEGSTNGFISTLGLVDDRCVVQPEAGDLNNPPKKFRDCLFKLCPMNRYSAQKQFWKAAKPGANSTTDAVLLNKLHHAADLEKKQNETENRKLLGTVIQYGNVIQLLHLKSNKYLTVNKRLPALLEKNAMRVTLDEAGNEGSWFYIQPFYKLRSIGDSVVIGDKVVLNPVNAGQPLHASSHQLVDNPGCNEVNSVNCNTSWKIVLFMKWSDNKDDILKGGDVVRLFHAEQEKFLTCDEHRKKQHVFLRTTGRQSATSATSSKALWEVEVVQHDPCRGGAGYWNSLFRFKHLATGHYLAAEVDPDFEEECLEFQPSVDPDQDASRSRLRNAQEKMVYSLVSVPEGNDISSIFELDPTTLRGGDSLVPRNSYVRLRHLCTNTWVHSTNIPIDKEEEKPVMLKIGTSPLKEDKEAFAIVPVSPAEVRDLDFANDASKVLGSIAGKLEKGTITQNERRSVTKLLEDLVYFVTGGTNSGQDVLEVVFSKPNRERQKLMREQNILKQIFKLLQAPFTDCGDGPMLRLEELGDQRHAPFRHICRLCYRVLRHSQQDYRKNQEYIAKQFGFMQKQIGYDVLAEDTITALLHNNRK
T3 sequence (P29994 224-604): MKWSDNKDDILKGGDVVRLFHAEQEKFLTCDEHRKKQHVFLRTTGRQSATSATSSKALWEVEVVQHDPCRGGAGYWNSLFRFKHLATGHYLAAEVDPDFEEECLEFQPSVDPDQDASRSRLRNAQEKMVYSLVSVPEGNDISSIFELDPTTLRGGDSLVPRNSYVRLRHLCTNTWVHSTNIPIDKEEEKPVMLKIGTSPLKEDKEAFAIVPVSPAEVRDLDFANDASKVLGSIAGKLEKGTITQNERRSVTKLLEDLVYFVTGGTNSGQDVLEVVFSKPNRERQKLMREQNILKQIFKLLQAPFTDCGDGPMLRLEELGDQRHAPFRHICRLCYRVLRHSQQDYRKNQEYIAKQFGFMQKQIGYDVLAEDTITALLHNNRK

As for `NCCOB(c1ccccc1)c1ccccc1` [Compound 2-APB, 2-aminoethoxydiphenyl borate], the “block of IP3-evoked Ca2+ release” value at IP3R1 (HEK-IP3R1 cells) is listed as “partially”.
A word on the Kd: it is the free concentration of one partner at which half of the binding sites on the other are occupied at equilibrium, for simple one-to-one binding. What is called EC50 is the concentration needed to bring the measured effect to its halfway point. As usually defined, the pEC50 is the negative decadic logarithm of the EC50, by convention in mol/L. On to `O=C(NCCCN(CCCCN(CCCNC(=O)OCc1ccccc1)C(=O)OCc1ccccc1)C(=O)OCc1ccccc1)NCCO[C@@H]1[C@H](O)[C@@H](OP(=O)(O)O)[C@H](OP(=O)(O)O)[C@@H](O)[C@@H]1OP(=O)(O)O` [Compound 2, 2-O-(1,5,10-tris(benzyloxycarbonyl)-15-oxo-1,5,10,14,16-pentaazaoctadecan-18-yl)-1D-myo-inositol 1,4,5-trisphosphate], for which the Kd in test [1] is 2.32 nM; in test [2] it was 0.44 nM; in test [3] (cerebellar membranes, CLM, conditions that mimic functional assays), 549 nM; at IP3R1 (DT40-IP3R1 cells) (DT40-IP3R1 cells, read-out: KD derived from functional assays), roughly 450 nM. The “Hill coefficient (h) of binding” value in test [3] (cerebellar membranes, CLM at 20°C) was determined as 2.0 ± 0.7. Moreover, the “KD relative to KD for IP3 (fold lower)” value in test [3] (conditions that mimic functional assays) was 1.5 fold. The “ECI50/KD ratio relative to IP3 (fold greater)” value at IP3R1 (DT40-IP3R1 cells) amounted to 41 fold. For the same compound, the “Ca2+ release evoked by 2 (%)” value on IP3R1 (DT40-IP3R1 cells) (2 at 1 µM, 30 s, permeabilized DT40-IP3R1 cells) is 31% ± 7% and 31 ± 7%. On IP3R1 (DT40-IP3R1 cells) (2 at 30 μM, determined at 150 s, permeabilized DT40-IP3R1 cells), the “Ca2+ stores released by a maximal concentration” value is 52% ± 3%. The compound also returned a pKD-pECI50 at IP3R1 (DT40-IP3R1 cells) (KD for IP3R1 in TEM, ECI50 in DT40-IP3R1 cells, mean ± SEM) of 2.15 ± 0.15. Also, the Kb at IP3R1 (DT40-IP3R1 cells) (functional analysis, IP3-evoked Ca2+ release ± 2 (1 µM), DT40-IP3R1 cells, read-out: KD determined from dose-ratio analysis, KD = [2]/(DR-1)) came to 426 nM. For the same compound, the “Ca2+ release, Release (maximal)” value at IP3R1 (DT40-IP3R1 cells) (permeabilized DT40-IP3R1 cells, determined after 20 s, mean ± SEM) was found to be 51.9 ± 0.7%. Moreover, the 50% effective concentration (EC50) on IP3R1 (DT40-IP3R1 cells) (permeabilized DT40-IP3R1 cells, determined after 20 s, read-out: Ca2+ release, EC50) turned out to be 479 nM. The “Ca2+ release (%)” value in test [4] (maximal) is listed as 51 ± 7%. The compound further gave a pEC50 in test [4] (mean ± SEM) of 6.09 ± 0.22. Also, on IP3R1, the “decrease in τo relative to IP3 (fold)” value is recorded as roughly 2 fold. Further, the “maximal NPo relative to IP3 (fold less)” value at IP3R1 worked out at 40 fold. Also, the “τo, mean channel open time” value at IP3R1 (10 µM ligand) is listed as 4.4 ± 0.20 ms. In addition, the “NPo (channel activity)” value at IP3R1 (10 µM ligand in pipette, +40 mV, K+ charge carrier, mean ± SEM) is recorded as 0.012 ± 0.003. Also, at IP3R1 (10 µM ligand, from current-voltage relationships), the “γK, single-channel K+ conductance” value is 217 ± 4 pS.
As to `Cc1cc(N)c2ccccc2[n+]1CCCCCCCCCC[n+]1c(C)cc(N)c2ccccc21` [dequalinium, Dequalinium chloride hydrate], in test [3] (dequalinium 50 μM, [3H]IP3 7.5 nM, cerebellar membranes in CLM at 20°C), the “effect on specific [3H]IP3 binding” value was “No significant difference”. The “block of IP3-evoked Ca2+ release” value at IP3R1 (HEK-IP3R1 cells) is recorded as “completely”.
